In brackets after ≈: the same amount, converted by molar mass. Where a name gives a salt, the structure may show the parent alone.
Assays:
Antibody (RS2708) = assay: Competitive ELISA for NBOMe based compounds (Example 13), HRP tracer vs calibrator/cross-reactant; format: binding, sheep; conditions: for % Cross-reactivity: IC50 25I-NBOMe.HCL/IC50 CR×100; for % CR: relative to 25I-NBOMe.HCl
Protocol: IgG was extracted from the antisera using ammonium sulphate/caprylic acid precipitation and the purified antibody was immobilised on a 96 well ELISA plate at 5 μg/ml in 10 mM TRIS buffer, pH 8.5 overnight at 4° C. […] The plate was washed (×3) with TBST and the calibrator (25I-NBOMe.HCL) or potential cross reactants added (50 μl per well), followed by HRP tracer (75 μl/well) to the appropriate wells. The plates were then incubated for 60 minutes at 25° C. […] 125 μL of signal (TMB) was then added to each well for 20 mins at room temperature in the dark. The reaction was stopped by the addition of 125 μl of 0.2 M Sulphuric Acid per well and the plates read immediately at 450 nm. Calibration curves were generated and these were used to determine the sensitivity and specificity of the immunoassay for 25I-NBOMe-HCL and potential cross-reactants. The data are inputted to a computer program called ‘KC Junior’ (Biotek). It gives a 4 parameter fit curve and allows the calculation of concentrations between the standard runs. This program is used to calculate the IC50 values by dividing the 0 ng/ml optical density (OD) value by 2 and obtaining the concentration value from the curve for this OD. The results of this study are presented in Tables 1-3, cross-reactivity being calculated according to the following formula: % CR=IC50 25I-NBOMe.HCL/IC50 CR×100
Wherein % CR is the percentage cross-reactivity, IC50 25I-NBOMe HCL is the concentration of 25I-NBOMe-HCL which causes 50% displacement of signal and IC50 CR is the concentration of potential cross-reactant that causes 50% displacement of signal.

[1] = recreational drug use; cited from earlier work
[2] = case study of 25I-NBOMe use; cited from earlier work
[3] = Table 2, antibody coated at 5 μg/ml, HRP tracer at 1/64K

For `COc1cc(CCNCc2ccccc2O)c(OC)cc1N` [25(NH2)-NBOH], the “% Cross-reactivity” value (Antibody (RS2708); Table 2) was 18.5% and the “IC50” value (Antibody (RS2708); [3]) was 0.887 ng/mL (≈ 2.93 nM).
For `COc1cc(CCNCc2ccccc2OC)c(OC)cc1Br` [25B-NBOMe•HCl, 2-(4-Bromo-2,5-dimethoxyphenyl)-N-[(2-methoxyphenyl)methyl]ethanamine], the “% Cross-reactivity” value (Antibody (RS2708); Table 2) was 118.8% and the “IC50” value (Antibody (RS2708); [3]) was 0.138 ng/mL.
With `COc1cc(CCNCc2ccccc2OC)c(OC)cc1C` [25D-NBOMe•HCl, 2-(2,5-Dimethoxy-4-methylphenyl)-N-[(2-methoxyphenyl)methyl]ethanamine] the “% Cross-reactivity” value (Antibody (RS2708); Table 2) was 157.7% and the “IC50” value (Antibody (RS2708); [3]) was 0.104 ng/mL.
With `CCc1cc(OC)c(CCNCc2ccccc2OC)cc1OC` [25E-NBOMe•HCl] the “% Cross-reactivity” value (Antibody (RS2708); Table 2) was 126.2% and the “IC50” value (Antibody (RS2708); [3]) was 0.13 ng/mL.
For `COc1ccc(OC)c(CCNCc2ccccc2OC)c1` [25H-NBOMe•HCl, 2-(2,5-dimethoxyphenyl)-N-(2-methoxybenzyl)ethanamine], the “% Cross-reactivity” value (Antibody (RS2708); Table 2) was 170.8% and the “IC50” value (Antibody (RS2708); [3]) was 0.096 ng/mL.
For `COc1cc(CCNCc2ccccc2OC)c(OC)cc1I` [25I-NBOMe•HCl, 2-(4-Iodo-2,5-dimethoxyphenyl)-N-[(2-methoxyphenyl)methyl] ethanamine], the B/Bo (Antibody (RS2708); Conc. 0.03125 ng/ml, 0 ng/ml = 100.0) was 90.2, the B/Bo (Antibody (RS2708); Conc. 0.0625 ng/ml, 0 ng/ml = 100.0) was 80.2 and the B/Bo (Antibody (RS2708); Conc. 0.125 ng/ml, 0 ng/ml = 100.0) was 61.3. It also gave a B/Bo (Antibody (RS2708); Conc. 0.25 ng/ml, 0 ng/ml = 100.0) of 33.4, a B/Bo (Antibody (RS2708); Conc. 0.5 ng/ml, 0 ng/ml = 100.0) of 14.7 and a B/Bo (Antibody (RS2708); Conc. 1 ng/ml, 0 ng/ml = 100.0) of 7.6. For the same compound, the B/Bo (Antibody (RS2708); Conc. 2 ng/ml, 0 ng/ml = 100.0) was 5.3, the IC50 (Antibody (RS2708); Table 1, antibody coated at 5 μg/ml, HRP tracer at 1/64K) was 0.164 ng/mL and the “% Cross-reactivity” value (Antibody (RS2708); Table 2) was 100%. The “IC50” value (Antibody (RS2708); [3]) was 0.164 ng/mL.
With `COc1cc([N+](=O)[O-])c(OC)cc1CCNCc1ccccc1OC` [25N-NBOMe•HCl, N-(2-Methoxybenzyl)-2-(2,5-dimethoxy-4-nitrophenyl)ethylamine] the “% Cross-reactivity” value (Antibody (RS2708); Table 2) was 115.5% and the “IC50” value (Antibody (RS2708); [3]) was 0.142 ng/mL.
In the case of `CCCc1cc(OC)c(CCNCc2ccccc2OC)cc1OC` [25P-NBOMe•HCl], the “% Cross-reactivity” value (Antibody (RS2708); Table 2) is reported as 111.6% and the “IC50” value (Antibody (RS2708); [3]) is reported as 0.147 ng/mL.
For `CCSc1cc(OC)c(CCNCc2ccccc2OC)cc1OC.Cl` [25T2-NBOMe•HCl], the “% Cross-reactivity” value (Antibody (RS2708); Table 2) was 120.6% and the “IC50” value (Antibody (RS2708); [3]) was 0.136 ng/mL.
With `COc1cc(SC(C)C)c(OC)cc1CCNCc1ccccc1OC` [25T4-NBOMe•HCl] the “% Cross-reactivity” value (Antibody (RS2708); Table 2) was 118% and the “IC50” value (Antibody (RS2708); [3]) was 0.139 ng/mL.
In the case of `CCCSc1cc(OC)c(CCNCc2ccccc2OC)cc1OC` [25T7-NBOMe•HCl], the “% Cross-reactivity” value (Antibody (RS2708); Table 2) is reported as 118% and the “IC50” value (Antibody (RS2708); [3]) is reported as 0.139 ng/mL.
For `COc1cc(CCN)c(OC)cc1Br` [Compound 2C-B], the B/Bo (Antibody (RS2708); Table 4, samples @ 100 ng/ml) was 89.9, the IC50 (Antibody (RS2708); Table 4, samples @ 100 ng/ml) was over 100 and the “% CR” value (Antibody (RS2708); Table 4, samples @ 100 ng/ml) was under 0.16%.
With `CCc1cc(OC)c(CCN)cc1OC` [Compound 2C-E] the B/Bo (Antibody (RS2708); Table 4, samples @ 100 ng/ml) was 92.2, the IC50 (Antibody (RS2708); Table 4, samples @ 100 ng/ml) was over 100 and the “% CR” value (Antibody (RS2708); Table 4, samples @ 100 ng/ml) was under 0.16%.
For `COc1cc(CCN)c(OC)cc1I` [Compound 2C-I], the B/Bo (Antibody (RS2708); Table 4, samples @ 100 ng/ml) was 88.8, the IC50 (Antibody (RS2708); Table 4, samples @ 100 ng/ml) was over 100 and the “% CR” value (Antibody (RS2708); Table 4, samples @ 100 ng/ml) was under 0.16%. The dose [1] was “around 20 milligrams”.
In the case of `COc1cc(CCNCc2ccccc2OC)c(OC)cc1I` [Compound 25I-NBOMe, 2-(4-Iodo-2,5-dimethoxyphenyl)-N-[(2-methoxyphenyl)methyl] ethanamine], the dose [1] is given as “less than one milligram” and the Clinical features [2] is given as “tachycardia, hypertension, agitation, aggression, visual and auditory hallucinations, seizures, hyperplexia, clonus, elevated white cell count, elevated creatine kinase, metabolic acidosis and acute kidney injury”.
For `COc1cc([N+](=O)[O-])c(OC)cc1CCNCc1ccccc1O` [Compound 25N-NBOH], the “% Cross-reactivity” value (Antibody (RS2708); Table 2) was 26.7% and the “IC50” value (Antibody (RS2708); [3]) was 0.615 ng/mL (≈ 1.85 nM).
For `COc1cc(CC(C)N)c(OC)cc1Br` (stereo not shown) [DOB, 2,5-Dimethoxy-4-bromoamphetamine], the B/Bo (Antibody (RS2708); Table 4, samples @ 100 ng/ml) was 91.8, the IC50 (Antibody (RS2708); Table 4, samples @ 100 ng/ml) was over 100 and the “% CR” value (Antibody (RS2708); Table 4, samples @ 100 ng/ml) was under 0.16%.
In the case of `COc1ccccc1CNCCc1cc(OC)c(OC)c(OC)c1.Cl` [Mescaline-NBOMe•HCl], the “% Cross-reactivity” value (Antibody (RS2708); Table 2) is reported as 164% and the “IC50” value (Antibody (RS2708); [3]) is reported as 0.1 ng/mL.

Reference: patent US9720005B2, “Immunoassay for compounds of the NBOMe family” (Randox Laboratories Limited, priority 2014, dated 2017)
